From US20090142281A1, “Composition Comprising A Coupled Enzyme System” (priority 2005, published 2009)
Like-named read-outs stand apart in the source and are kept apart here.

Columns and labels:
Type in all cases: biochemical
[1] = In gel overlay activity assay (PMS/NBT) using sorbitol as substrate; details: native gel
Description: b) In gel overlay activity assay (PMS/NBT) using sorbitol as substrate.
The cell lysates were fractionated on a native gel that was further tested in an in-gel overlay activity assay using sorbitol as the substrate and an assay based on the PMS mediated reduction of NBT. […] The PMS/NBT is a diagnostic assay for flavoproteins where PMS=phenazine methosulfate is a redox mediator which is reduced by reduced FAD.

[2] = test system: hydrogen peroxide production; test: Synergy between the two enzymes: initial velocity of H2O2 production in 300 uL ABTS assay; details: further enzyme at 1× to 3000× excess over polyol oxidase; especially at dosages greater than 1×
Description: In the example below the amounts of enzyme are given as unit amounts.
A unit of HOX is the amount of enzyme that produced 1 umol H202/min when substrates are in excess.
A unit of GOX is the amount of enzyme that produced 1 umol H202/min when substrates are in excess.
A unit of SOX is the amount of enzyme that produced 1 umol H202/min when substrates are in excess.
The generated sugar will be the limiting factor for the secondary enzyme. As noted above the activity is given as a percentage value of SOX catalysing D-sorbitol when both D-sorbitol and oxygen is in excess.
Initial velocities were measured over 5 minutes in 300 uL ABTS assay (as described previously). The production of rate of hydrogen peroxide production was extrapolated from a standard curve. The measured activity, shown in FIG. 3 and FIG. 4 are given as a percentage value. 100% is defined as the rate of hydrogen peroxide production by sorbitol oxidase alone, when the substrates D-sorbitol and oxygen is in excess (Linear velocity curves)

Sorbitol oxidase [3] = biological target: T1, Sorbitol oxidase (Streptomyces coelicolor, UniProt Q9ZBU1); test: Relative activity of sorbitol oxidase on xylitol and sorbitol (ABTS assay); details: rate of H2O2 production, substrate in excess, same amount of enzyme
T1 construct: made in house; host or cells: Streptomyces lividans g3s3 (vector pKB105, PSMM-SOX)
Description: The commonly used horse radish peroxidase dye substrate ABTS was incorporated into an assay, measuring the production of H2O2 produced by HOX or GOX respectively. ABTS serves as a chromogenic substrate for peroxidase. Peroxidase in combination with H2O2 facilitates the electron transport from the chromogenic dye, which is oxidised to an intensely green/blue compound.
An assay mixture contained 266 μl sorbitol (Sigma P-5504, 0.055 M in 0.1 M sodium phosphate buffer, pH 6.3), (or alternative substrate, e.g. xylitol), 12 μl 2,2′-Azino-bis(3-ethylbenzothiozoline-6-Sulfonic acid) (ABTS) (Sigma A-9941, 5 mg/ml aqueous solution), 12 μl peroxidase (POD) (Sigma P-6782, 0.1 mg/ml in 0.1 M sodium phosphate buffer, pH 6.3) and 10 μl enzyme (SOX or HOX) aqueous solution.
The assay is performed at 25° C.
The incubation was started by the addition of glucose. The absorbance was monitored at 405 nm in an ELISA reader. A standard curve, based on varying concentrations of H2O2, was used for calculation of enzyme activity according to the definition above.
The purpose was to measure the difference in activity of sorbitol oxidase on D-sorbitol and D-xylitol. The ABTS assay was used as described previously to measure the rate of H2O2 production when both D-sorbitol and D-xylitol was in excess. The same amount of enzyme, as prepared in the previous examples was used in both cases. […]

Sorbitol oxidase [4] = biological target: T1, Sorbitol oxidase
Description: Sorbitol oxidase obtained using the methods described in Example 3-4, was tested for finding its activity with various polyol substrates. All substrates used in the assay were 55 mM in 100 mM phosphate buffer pH 7.0 at 25° C. The relative activity using sorbitol as (++++++=100%) is shown below in Table 1. In addition to these substrates, it is contemplated that other substrates, including, but not limited to glycerol, will find use in the present invention.

[5] = substrate 55 mM in 100 mM phosphate buffer pH 7.0 at 25° C., relative to sorbitol

T1 sequence (Q9ZBU1 other isoform, or with tags, fused parts or gaps): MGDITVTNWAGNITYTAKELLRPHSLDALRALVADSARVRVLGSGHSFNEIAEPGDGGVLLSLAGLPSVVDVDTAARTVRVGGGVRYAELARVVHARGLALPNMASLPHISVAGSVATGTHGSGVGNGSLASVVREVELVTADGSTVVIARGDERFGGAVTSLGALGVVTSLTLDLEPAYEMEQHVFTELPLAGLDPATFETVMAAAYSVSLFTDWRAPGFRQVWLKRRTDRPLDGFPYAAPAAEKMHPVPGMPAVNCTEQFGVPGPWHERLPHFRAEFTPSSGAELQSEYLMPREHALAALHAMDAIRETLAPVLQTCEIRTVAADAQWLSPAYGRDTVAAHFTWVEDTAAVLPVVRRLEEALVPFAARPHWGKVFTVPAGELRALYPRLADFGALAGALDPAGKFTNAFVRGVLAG

Molecule | Relative activity% (Sorbitol oxidase [3]) [%] | Relative Activity (+, 0) (Sorbitol oxidase [4]; [5]) | Relative Activity (+, 0) (Sorbitol oxidase [4]; pH 7) | further results
glucose oxidase [reference compound] | – | – | – | activity towards sorbitol (stained band) [1]: not active towards sorbitol; synergy in initial velocity of H2O2 production (FIG. 4) [2]: dramatic synergy
OC[C@@H](O)[C@@H](O)[C@H](O)[C@@H](O)CO [D-Sorbitol] | 100 | + + + + + + | – | –
OCCO [Ethylene glycol] | – | – | 0 | –
OC[C@@H](O)[C@@H](O)[C@H](O)[C@H](O)CO [D-Mannitol] | – | + + + | – | –
OC[C@@H](O)[C@H](O)[C@@H](O)CO [D-Xylitol] | 47.6 | – | + + + + | –
CC(O)CO (stereo not drawn) [Propylene glycol] | – | 0 | – | –
